Experimental data from US8686028B2, “Substituted benzfurochromenes and related compounds for the prevention and treatment of bone related disorders” (Council of Scientific & Industrial Research, priority 2008, dated 2014).

Key:
Calvarial osteoblasts = experiment: Alkaline phosphatase (ALP) activity for osteoblast differentiation, calvarial osteoblasts; type: cell-based, rat; details: for stimulation of ALP activity: osteoblasts, concentrations not given
Protocol: (§1) Neonatal rat calvarial cell cultures are prepared as described previously (Endocrinology 145:3451) using slight modification. Briefly, for primary osteoblast cell cultures, frontal and parietal bones from Sprague-Dawley rat neonates (1-3 day old) are digested in 0.1% collagenase/0.1% dispase in α-MEM to obtain 5 sequential digests. The second through fifth digests are combined and grown to confluence at 37° C. and 5% CO2 in air in α-MEM, supplemented with 10% fetal bovine serum (FBS), 2 mM glutamine, 100 U/ml penicillin-streptomycin, Non-essential amino acid solution and sodium pyruvate.
70 to 80% confluent Calvarial osteoblasts were treated with μM S006-1709 for 48 h in the presence of ascorbate and glycerophosphate. At the end of incubation period, total ALP activity was measured with a method using p-nitrophenylphosphate (PNPP) as substrate. The reaction mixture contained diethanolamine buffer (1 mol/L, pH 9.8), 0.5 mmol/L MgCl2.6H2O, and 10 mmol/L PNPP. ALP activity was measured by taking OD of the amount of colored product formed by the dephosphorylation of PNPP at 405 nm. […] In addition, the effect of S006-1709 on mineralization of calvarial osteoblasts was studied.
We then studied its effect in osteoblast differentiation in both calvarial and bone marrow osteoblasts. Confluent calvarial osteoblasts (70 to 80%) were treated with S006-1710 for 48 h in the presence of ascorbate and glycerophosphate at concentrations ranging from 10^−16M to 10^−6M. At the end of incubation period, total ALP activity was measured with the same method used previously using p-nitrophenylphosphate (PNPP) as substrate.
70 to 80% confluent Calvarial osteoblasts were treated with S007-1351 for 48 h in the presence of ascorbate and glycerophosphate. At the end of incubation period, total ALP activity was measured with a method using p-nitrophenylphosphate (PNPP) as substrate. The reaction mixture contained diethanolamine buffer (1 mol/L, pH 9.8), 0.5 mmol/L MgCl2.6H2O, and 10 mmol/L PNPP. ALP activity was measured by taking OD of the amount of colored product formed by the dephosphorylation of PNPP at 405 nm.
70 to 80% confluent calvarial osteoblasts were treated with S007-1352 for 48 h in the presence of ascorbate and glycerophosphate at concentrations ranging from 10^−12M to 10^−6 M. At the end of incubation period, total ALP activity was measured with the same method used previously using p-nitrophenylphosphate (PNPP) as substrate.

[1] = tested on: Calvarial osteoblast cells; experiment: MTT cell proliferation assay; type: cell-based, rat; details: 10^−10 M to 10^−6M, 24 hrs
Protocol: as §1
MTT [3-(4,5-dimethylthiazol-2-yl)-2,5-diphenyltetrazolium bromide] assay, first described by Mosmann in 1983, is based on the ability of a mitochondrial dehydrogenase enzyme from viable cells to cleave the tetrazolium rings of the pale yellow MTT and form a dark blue formazan crystals which is largely impermeable to cell membranes, thus resulting in its accumulation within healthy cells. Solubilisation of the cells by the addition of a detergent results in the liberation of the crystals which are solubilized. The number of surviving cells is directly proportional to the level of the formazan product created. The color can then be quantified using a simple colorimetric assay. The results can be read on a multiwell scanning spectrophotometer (Mosmann T. Rapid colorimetric assay for cellular growth and survival: application to proliferation and cytotoxicity assays. J Immunol Methods. 1983 Dec. 16; 65(1-2):55-63).
Calvarial osteoblast cells plated at a density of 2.0×10^3 cells/200 ul in 96 wells plates. Cells were grown to 60% confluency and then treated with following compounds S006-1709, S006-1710, 5006-1711, S006-1713 and; S006-1714 at concentrations ranging from 10^−10 M to 10^−6M for 24 hrs. After treatment media was removed and 10 mM MTT was added solution in phenol red free DMEM media. After an incubation of 4 hrs the MTT solution was removed. Blue colored crystals were formed which were dissolved in DMSO and absorbance was read on ELISA plate reader at 570 nm wavelength.

[2] = tested on: ovariectomized immature female rats; experiment: Estrogenicity, uterine fresh weight in ovariectomized immature female rats; type: in vivo, rat; details: three consecutive days, vehicle 16.46
Protocol: (§2) 21 day old immature female rats (25-30 grams) were ovariectomized and given 7 days post-operative rest. Thereafter they were treated orally with the test agent (10 mg/Kg body weight) or with vehicle or Ethynyl estradiol, the reference standard for three consecutive days. For anti-estrogenicity, other than the test chemical, ethynyl estradiol (0.01 mg/kg) was given at 15 minutes interval before the test chemical. Autopsy was done 24 h after last treatment and uterine fresh weight was taken.

3T3-L1 cells = experiment: Anti-adipogenic effect (Oil Red O) in 3T3-L1 cells; type: cell-based, mouse; details: 3T3L1, both concentrations (10^−10 M and 10^−12M)
Protocol: The best characterized model of adipogenesis in vitro is the 3T3-L1 cell line, a substrain of Swiss 3T3 mouse cell line. 3T3-L1 cells propagated under normal conditions have a fibroblastic phenotype. However, when treated with a combination of dexamethasone, isobutylmethylxanthine (IBMX or MIX) and insulin, 3T3-L1 cells adopt a rounded phenotype and within 5 days begin to accumulate lipids intracellularly in the form of lipid droplets.
3T3-L1 cells were plated in 48-well plates 40,000 cells/well. The cells were incubated in DMEM containing fetal calf serum for 2 days until the cells become confluent. The cells were then incubated with Adipogenesis initiation media which contains DMEM with 10% FCS, IBMX and dexamethasone for 48 hrs at 37° C., 5% CO2. After two days the media was replaced with Adipogenesis Progression media which contains DMEM/10% FCS and insulin for 48 hrs at 37° C., 5% CO2, Media was again changed gently to Adipogenesis maintenance media for 48 hrs at 37° C., 5% CO2. At the end of eight days of experiment the cells were fixed and then stained with Oil Red O which stains lipid droplets. The dye was extracted and extracted dye was transferred to a 96-well plate and absorbance of extracted Oil Red O was measured in a plate reader at 490 nm.
Compounds S006-1709, S007-1351-53, S007-1495 and S007-1500 were tested in vitro in 3T3L1 cell line at two concentrations 10^−10 M and 10^−12M. FIG. 8A depicts the adipocytes formed at the end of the 8 day experiment. The fixed cells were stained with Oil Red O. The dye was then extracted and quantified.

[3] = tested on: Immature 21 d old female SD rat; experiment: In vivo efficacy, BMD in immature female SD rats; details: 10 mg/kg daily, one month; vehicle = 100
Protocol: Immature 21 d old female SD rat model was chosen, animals were randomized into four groups and treated with a daily dose of test agent or vehicle for one month and autopsied on day 31.
[…], the animals were shifted to metabolic cage for acclaimatization for 24 h with food and water. Post acclaimatization animals were further left in metabolic cage for 24 h with water but no food. Blood and urine samples were collected after 24 h. Various biochemical parameters like serum calcium, serum phosphorus, serum osteocalcin, serum alkaline phosphatase (ALP) were evaluated. The animals were autopsied on day 31 and lumbar vertebrae, femur and tibia bones were isolated, cleaned and fixed in 70% ethanol in saline and stored at 4° C. until BMD measurement. Initial and final body weight and uterine weight at autopsy were recorded. BMD measurements of region of interest (lumbar: global, L1-L4; femur: global, neck and mid-shaft; tibia: global, proximal and tibio-fibula junction point) was performed using a bone densitometer (Model 4500 Elite, Hologic) fitted with commercially available software (QDR 4500 ACCLAIM series) for a fan-beam DXA system that permits determination of bone densitometry and measurement of body composition in small animals in vivo.

[4] = tested on: ovariectomized immature female rats; experiment: Anti-estrogenicity, uterine fresh weight with ethynyl estradiol co-treatment; type: in vivo, rat; details: 10 mg/Kg oral plus ethynyl estradiol 0.01 mg/kg
Protocol: as §2

[5] = Pharmacokinetic studies in Sprague Dawley rats; type: in vivo; details: rat, plasma, SD rats, oral dose of 5 mg/kg
Protocol: In-vivo pharmacokinetic parameters were generated in Sprague Dawley rats at a dose of 5 mg/kg by oral route of administration. The blood samples were drawn at 0.25, 0.5, 0.75, 1.0, 1.5, 2.0, 2.5, 4.0, 6, 8, 10, 12, 18, 24, 28, 36 and 48 hours, processed and analyzed by Liquid Chromatography-Mass Spectrometry (LC-MS). Plasma concentration at different time points were plotted to give Plasma Concentration Time Profile and the data was fitted non-compartmentally using Win NonLin 5.1 version software and the estimates of pharmacokinetic parameters were derived with SD mean values.

COc1ccc(-c2coc3cc(O)ccc3c2=O)c(OC)c1 [Compound S006-1713, 3-(2,4-Dimethoxy-phenyl)-7-hydroxy-chromen-4-one]
stimulation of ALP activity (Calvarial osteoblasts): non-significant
effect on osteoblast proliferation (MTT) [1]: did not have any effect

CC(C)Oc1ccc2c(c1)OCC1c3ccccc3OC21 (stereo not drawn) [Compound S-008-0398, 3-Isopropoxy-6a,11a-dihydro-6H-benzofuro[3,2-c]chromene]
melting point: 96 to 98 °C

COc1ccc(-c2coc3cc(O)ccc3c2=O)c(O)c1 [Compound S006-1714, 7-Hydroxy-3-(2-hydroxy-4-methoxy-phenyl)-chromen-4-one]
stimulation of ALP activity (Calvarial osteoblasts): non-significant
effect on osteoblast proliferation (MTT) [1]: did not have any effect
melting point: 210 to 212 °C

Cc1c(O)ccc2c(=O)c(-c3ccccc3O)coc12 [Compound S007-1498, 7-Hydroxy-3-(2-hydroxy-phenyl)-8-methyl-chromen-4-one]
stimulation of ALP activity (Calvarial osteoblasts): non-significant
melting point: 196 to 198 °C

Cc1c(OCC#N)ccc2c1OCC1c3ccccc3OC21 (stereo not drawn) [Compound S007-1501, (4-Methyl-6a,11a-dihydro-6H-benzo[4,5]furo[3,2-e]chromen-3-yloxy)-acetonitrile]
stimulation of ALP activity (Calvarial osteoblasts): non-significant

C#C[C@]1(O)CC[C@H]2[C@@H]3CCc4cc(O)ccc4[C@H]3CC[C@@]21C [Ethnyl Estradiol, Ethynyl estradiol, reference compound]
Estrogenic Activity (uterine fresh weight) ([2]; reference standard, 0.01 mg/Kg): 98.3

O=c1c(-c2ccccc2O)coc2cc(O)c(Cl)cc12 [Compound S007-1354, 6-Chloro-7-hydroxy-3-(2-hydroxy-phenyl)-chromen-4-one]
stimulation of ALP activity (Calvarial osteoblasts): non-significant
melting point: > 250 °C

COc1ccccc1-c1coc2cc(O)c(Cl)cc2c1=O [Compound S007-1355, 6-Chloro-7-hydroxy-3-(2-methoxy-phenyl)-chromen-4-one]
stimulation of ALP activity (Calvarial osteoblasts): non-significant
melting point: 228 to 230 °C

COc1ccccc1-c1coc2c(O)c(O)ccc2c1=O [Compound S007-1352, 7,8-Dihydroxy-3-(2-methoxy-phenyl)-chromen-4-one]
effect on adipogenesis (3T3-L1 cells): inducers of adipogenesis
osteoblast ALP activity vs vehicle control (Calvarial osteoblasts; calvarial osteoblasts, 48 h, 10^−12M to 10^−6M): significant increase
melting point: 220 to 222 °C

c1ccc2c(c1)OC1c3ccc(OCCN4CCCCC4)cc3OCC21 (stereo not drawn) [Compound S-008-0399, 1-(2-(6a,11a-Dihydro-6H-benzofuro[3,2-c]chromen-3-yloxy)ethyl)piperidine]
melting point: 202 to 204 °C

C=CCOc1ccc2c(c1)OCC1c3ccccc3OC21 (stereo not drawn) [Compound S-008-0625, 3-(Allyloxy)-6a,11a-dihydro-6H-benzofuro[3,2-c]chromene]
melting point: 72 to 74 °C

Cc1c(O)ccc2c1OCC1c3ccccc3OC21 (stereo not drawn) [Compound S007-1499, 4-Methyl-6a,11a-dihydro-6H-benzo[4,5]furo[3,2-c]chromen-3-ol]
stimulation of ALP activity (Calvarial osteoblasts): non-significant
melting point: 160 to 162 °C

Oc1ccc2c(c1)OCC1c3ccccc3OC21 (stereo not drawn) [Compound S006-1709, 6a,11a-Dihydro-6H-benzo[4,5]furo[3,2-c]chromen-3-ol]
Change in BMD, Femur Global [3]: 138.75
Change in BMD, Femur Neck [3]: 141
Change in BMD, Femur Shaft [3]: 167
Change in BMD, Lumber Vertebra Global [3]: 120
Change in BMD, Lumber Vertebra LV1 [3]: 126
Change in BMD, Lumber Vertebra LV2 [3]: 124
Change in BMD, Lumber Vertebra LV3 [3]: 90.3
Change in BMD, Lumber Vertebra LV4 [3]: 125
Change in BMD, Tibia Global [3]: 133
Change in BMD, Tibia Head [3]: 115
Change in BMD, Tibia TFSP [3]: 124
Anti-Estrogenic Activity (uterine fresh weight) [4]: 96.86
Anti-Estrogenic Activity, % (second line of cell) ([4]; relative to ethynyl estradiol): −1.5%^
effect on osteoblast proliferation (MTT) [1]: no effect
Estrogenic Activity (uterine fresh weight) ([2]; 10 mg/Kg oral): 15.8
melting point: 148 to 152 °C
AUC ([5]; read-out: Area under curve (AUC)): 32.1 ± 12 ng·h/mL
Cmax ([5]; read-out: Maximum plasma concentration (Cmax)): 17.5 ± 1.76 ng/mL
half-life ([5]; read-out: elimination half life (T1/2) (converted)): 150 min
MRT ([5]; read-out: mean residence time (MRT)): 3.5 h
Tmax ([5]; read-out: time to achieve maximum plasma concentration (tmax) (converted)): 15 min
